Test results published in ChEMBL document CHEMBL4507311, “Data for DCP probe A-1155463” (2021).

Tests used:
[1] = target: Serine/threonine-protein kinase BRSK1 (Homo sapiens) (UniProt Q8TDC3); details: Compound concentration 1000.0 nM
[2] = target: MAP kinase-interacting serine/threonine-protein kinase 1 (Homo sapiens) (UniProt Q9BUB5); details: Compound concentration 1000.0 nM
[3] = target: Serine/threonine-protein kinase 3 (Homo sapiens) (UniProt Q13188); details: Compound concentration 1000.0 nM
Chain of Serine/threonine-protein kinase 3 (Homo sapiens) (Q13188 whole entry): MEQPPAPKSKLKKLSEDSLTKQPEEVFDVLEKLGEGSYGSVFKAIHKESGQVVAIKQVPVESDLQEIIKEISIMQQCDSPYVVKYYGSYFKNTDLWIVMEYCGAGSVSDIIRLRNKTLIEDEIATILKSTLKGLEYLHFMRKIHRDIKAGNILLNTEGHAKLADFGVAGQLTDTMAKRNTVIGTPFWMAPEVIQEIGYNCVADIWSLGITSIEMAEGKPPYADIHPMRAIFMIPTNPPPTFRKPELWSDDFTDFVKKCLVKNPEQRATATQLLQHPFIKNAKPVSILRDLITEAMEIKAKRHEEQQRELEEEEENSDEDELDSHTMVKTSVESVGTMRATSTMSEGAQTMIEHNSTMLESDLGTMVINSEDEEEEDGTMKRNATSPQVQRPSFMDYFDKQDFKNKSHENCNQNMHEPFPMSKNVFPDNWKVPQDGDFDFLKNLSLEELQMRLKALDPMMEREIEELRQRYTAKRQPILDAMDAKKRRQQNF

[4] = target: Serine/threonine-protein kinase Nek2 (Homo sapiens) (UniProt P51955); details: Compound concentration 1000.0 nM
Chain of Serine/threonine-protein kinase Nek2 (Homo sapiens) (P51955 whole entry): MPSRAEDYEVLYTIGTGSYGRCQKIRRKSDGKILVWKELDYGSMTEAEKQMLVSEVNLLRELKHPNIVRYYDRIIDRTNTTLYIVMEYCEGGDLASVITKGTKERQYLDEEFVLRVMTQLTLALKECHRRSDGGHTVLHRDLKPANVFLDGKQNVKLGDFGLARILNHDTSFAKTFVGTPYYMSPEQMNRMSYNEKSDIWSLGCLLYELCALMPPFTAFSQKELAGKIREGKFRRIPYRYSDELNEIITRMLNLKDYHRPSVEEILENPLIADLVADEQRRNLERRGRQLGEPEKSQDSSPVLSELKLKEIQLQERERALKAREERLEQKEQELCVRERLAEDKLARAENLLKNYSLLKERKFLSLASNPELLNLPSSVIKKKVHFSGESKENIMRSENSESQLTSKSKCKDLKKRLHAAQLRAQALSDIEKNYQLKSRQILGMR

[5] = target: T1, Alpha-2B adrenergic receptor (Homo sapiens) (UniProt P18089); details: Compound concentration 10.0 uM
T1 sequence (whole entry): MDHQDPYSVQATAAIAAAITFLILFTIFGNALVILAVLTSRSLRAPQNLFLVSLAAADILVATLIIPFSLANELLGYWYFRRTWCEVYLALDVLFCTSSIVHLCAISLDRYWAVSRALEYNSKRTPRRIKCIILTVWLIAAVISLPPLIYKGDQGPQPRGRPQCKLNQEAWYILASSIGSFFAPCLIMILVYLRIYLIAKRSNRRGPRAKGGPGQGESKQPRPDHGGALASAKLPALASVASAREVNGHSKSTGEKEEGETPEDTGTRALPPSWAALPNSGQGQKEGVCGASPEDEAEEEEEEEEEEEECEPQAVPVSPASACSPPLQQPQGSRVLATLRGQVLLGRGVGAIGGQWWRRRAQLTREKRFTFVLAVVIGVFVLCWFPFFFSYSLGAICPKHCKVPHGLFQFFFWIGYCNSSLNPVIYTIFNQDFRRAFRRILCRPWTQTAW

[6] = target: Alpha-2C adrenergic receptor (Homo sapiens) (UniProt P18825); details: Compound concentration 10.0 uM
Chain of Alpha-2C adrenergic receptor (Homo sapiens) (P18825 whole entry): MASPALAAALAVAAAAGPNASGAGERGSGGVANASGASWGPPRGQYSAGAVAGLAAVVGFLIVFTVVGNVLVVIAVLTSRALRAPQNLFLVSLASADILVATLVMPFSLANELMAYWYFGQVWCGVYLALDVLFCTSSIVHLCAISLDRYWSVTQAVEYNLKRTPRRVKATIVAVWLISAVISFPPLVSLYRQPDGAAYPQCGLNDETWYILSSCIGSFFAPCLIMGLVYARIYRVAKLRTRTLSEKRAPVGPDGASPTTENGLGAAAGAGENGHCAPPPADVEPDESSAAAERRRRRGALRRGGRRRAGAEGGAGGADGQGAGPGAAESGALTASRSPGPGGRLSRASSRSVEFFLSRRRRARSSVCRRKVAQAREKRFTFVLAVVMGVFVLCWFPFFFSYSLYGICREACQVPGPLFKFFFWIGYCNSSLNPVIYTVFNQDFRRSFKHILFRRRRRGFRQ

Chain of Serine/threonine-protein kinase BRSK1 (Homo sapiens) (Q8TDC3 whole entry): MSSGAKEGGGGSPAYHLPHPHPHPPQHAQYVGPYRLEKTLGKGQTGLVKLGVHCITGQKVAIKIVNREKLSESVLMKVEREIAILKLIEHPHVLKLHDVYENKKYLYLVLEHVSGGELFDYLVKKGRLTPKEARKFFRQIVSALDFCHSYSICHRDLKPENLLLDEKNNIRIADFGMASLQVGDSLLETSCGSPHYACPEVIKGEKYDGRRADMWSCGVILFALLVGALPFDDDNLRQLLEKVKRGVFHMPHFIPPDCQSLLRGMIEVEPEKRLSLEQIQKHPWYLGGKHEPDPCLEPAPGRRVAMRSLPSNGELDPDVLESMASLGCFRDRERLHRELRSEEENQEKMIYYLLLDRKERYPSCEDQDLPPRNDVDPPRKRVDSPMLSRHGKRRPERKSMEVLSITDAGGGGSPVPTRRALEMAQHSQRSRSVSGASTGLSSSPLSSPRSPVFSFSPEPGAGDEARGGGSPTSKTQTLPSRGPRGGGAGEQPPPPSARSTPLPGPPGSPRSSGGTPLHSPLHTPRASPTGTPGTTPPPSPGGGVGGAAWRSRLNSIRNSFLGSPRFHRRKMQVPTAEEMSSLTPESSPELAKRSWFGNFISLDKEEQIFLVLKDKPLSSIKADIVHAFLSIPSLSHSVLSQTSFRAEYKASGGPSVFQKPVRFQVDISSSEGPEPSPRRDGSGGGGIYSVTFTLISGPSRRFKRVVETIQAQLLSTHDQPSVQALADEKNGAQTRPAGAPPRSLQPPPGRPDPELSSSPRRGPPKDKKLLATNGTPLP
Chain of MAP kinase-interacting serine/threonine-protein kinase 1 (Homo sapiens) (Q9BUB5 whole entry, looked up): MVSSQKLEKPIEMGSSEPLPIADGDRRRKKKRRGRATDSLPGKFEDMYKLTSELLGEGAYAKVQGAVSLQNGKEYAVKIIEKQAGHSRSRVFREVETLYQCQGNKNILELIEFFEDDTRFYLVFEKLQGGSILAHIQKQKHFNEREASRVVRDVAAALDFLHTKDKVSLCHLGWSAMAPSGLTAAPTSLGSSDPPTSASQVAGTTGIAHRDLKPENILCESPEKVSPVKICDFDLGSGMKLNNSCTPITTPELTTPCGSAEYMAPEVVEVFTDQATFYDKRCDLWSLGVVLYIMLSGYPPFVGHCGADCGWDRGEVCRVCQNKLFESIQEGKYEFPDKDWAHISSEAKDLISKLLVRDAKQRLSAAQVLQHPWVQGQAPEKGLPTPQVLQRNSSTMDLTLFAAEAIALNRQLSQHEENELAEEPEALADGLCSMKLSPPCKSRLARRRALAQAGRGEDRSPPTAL

CN(C)CC#Cc1ccc(OCCCc2sc(N3CCc4cccc(C(=O)Nc5nc6ccccc6s5)c4C3)nc2C(=O)O)c(F)c1 [A-1155463]
inactive: residual activity [1] 100% | residual activity [2] 78% | residual activity [3] 88% | residual activity [4] 92% | inhibition [5] 17.2% | inhibition [6] 10.8%
